ChEMBL document CHEMBL4373715, “Discovery and Biological Evaluations of Halogenated 2,4-Diphenyl Indeno[1,2-b]pyridinol Derivatives as Potent Topoisomerase IIα-Targeted Chemotherapeutic Agents for Breast Cancer” (J Med Chem, 2019)

Assays:
[1] = molecular target: DNA topoisomerase 2-alpha (Homo sapiens) (UniProt P11388); experiment: Inhibition of recombinant human topoisomerase 2alpha-mediated relaxation of supercoiled pBR322 DNA at 20 uM measured after 30 mins by ethidium bromide staining based agarose gel electrophoresis relative to control
[2] = molecular target: T1, DNA topoisomerase 1 (Homo sapiens) (UniProt P11387); experiment: Inhibition of recombinant human topoisomerase 1-mediated relaxation of supercoiled pBR322 DNA at 100 uM measured after 30 mins by ethidium bromide staining based agarose gel electrophoresis relative to control
T1 sequence (whole entry): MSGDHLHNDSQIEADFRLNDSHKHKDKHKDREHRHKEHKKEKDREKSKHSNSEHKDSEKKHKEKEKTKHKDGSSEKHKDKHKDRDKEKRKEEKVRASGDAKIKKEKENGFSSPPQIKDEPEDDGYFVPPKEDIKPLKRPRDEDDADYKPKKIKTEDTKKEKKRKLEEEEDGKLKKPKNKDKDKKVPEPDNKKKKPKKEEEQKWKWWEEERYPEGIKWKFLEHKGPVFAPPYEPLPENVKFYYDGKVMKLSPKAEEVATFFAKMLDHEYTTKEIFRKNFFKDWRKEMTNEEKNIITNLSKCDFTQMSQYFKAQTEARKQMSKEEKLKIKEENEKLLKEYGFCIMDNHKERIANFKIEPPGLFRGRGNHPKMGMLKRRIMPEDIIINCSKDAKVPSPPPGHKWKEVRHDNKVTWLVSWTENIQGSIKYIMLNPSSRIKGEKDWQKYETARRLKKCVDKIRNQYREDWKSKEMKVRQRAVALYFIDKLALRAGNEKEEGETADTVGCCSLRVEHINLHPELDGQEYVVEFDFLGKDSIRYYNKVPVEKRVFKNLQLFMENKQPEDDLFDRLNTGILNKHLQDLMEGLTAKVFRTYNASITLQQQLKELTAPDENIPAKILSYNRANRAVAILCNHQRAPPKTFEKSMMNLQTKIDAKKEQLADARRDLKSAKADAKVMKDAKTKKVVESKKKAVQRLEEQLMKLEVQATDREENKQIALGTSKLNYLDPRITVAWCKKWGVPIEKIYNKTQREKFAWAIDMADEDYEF

[3] = test system: T47D; experiment: Antiproliferative activity against human T47D cells measured after 72 hrs by EZ-Cytox assay; format: functional, cell-based
[4] = test system: DU-145; experiment: Antiproliferative activity against human DU145 cells measured after 72 hrs by EZ-Cytox assay; format: functional, cell-based; conditions: DU-145, 72 h
[5] = test system: HeLa; experiment: Antiproliferative activity against human HeLa cells measured after 72 hrs by EZ-Cytox assay; format: functional, cell-based
[6] = test system: HCT-15; experiment: Antiproliferative activity against human HCT15 cells measured after 72 hrs by EZ-Cytox assay; format: functional, cell-based; conditions: HCT-15, 72 h
[7] = molecular target: DNA topoisomerase 2-alpha (Homo sapiens) (UniProt P11388); experiment: Inhibition of recombinant human topoisomerase 2alpha-mediated relaxation of supercoiled pBR322 DNA at 100 uM measured after 30 mins by ethidium bromide staining based agarose gel electrophoresis relative to control

Chain of DNA topoisomerase 2-alpha (Homo sapiens) (P11388 whole entry): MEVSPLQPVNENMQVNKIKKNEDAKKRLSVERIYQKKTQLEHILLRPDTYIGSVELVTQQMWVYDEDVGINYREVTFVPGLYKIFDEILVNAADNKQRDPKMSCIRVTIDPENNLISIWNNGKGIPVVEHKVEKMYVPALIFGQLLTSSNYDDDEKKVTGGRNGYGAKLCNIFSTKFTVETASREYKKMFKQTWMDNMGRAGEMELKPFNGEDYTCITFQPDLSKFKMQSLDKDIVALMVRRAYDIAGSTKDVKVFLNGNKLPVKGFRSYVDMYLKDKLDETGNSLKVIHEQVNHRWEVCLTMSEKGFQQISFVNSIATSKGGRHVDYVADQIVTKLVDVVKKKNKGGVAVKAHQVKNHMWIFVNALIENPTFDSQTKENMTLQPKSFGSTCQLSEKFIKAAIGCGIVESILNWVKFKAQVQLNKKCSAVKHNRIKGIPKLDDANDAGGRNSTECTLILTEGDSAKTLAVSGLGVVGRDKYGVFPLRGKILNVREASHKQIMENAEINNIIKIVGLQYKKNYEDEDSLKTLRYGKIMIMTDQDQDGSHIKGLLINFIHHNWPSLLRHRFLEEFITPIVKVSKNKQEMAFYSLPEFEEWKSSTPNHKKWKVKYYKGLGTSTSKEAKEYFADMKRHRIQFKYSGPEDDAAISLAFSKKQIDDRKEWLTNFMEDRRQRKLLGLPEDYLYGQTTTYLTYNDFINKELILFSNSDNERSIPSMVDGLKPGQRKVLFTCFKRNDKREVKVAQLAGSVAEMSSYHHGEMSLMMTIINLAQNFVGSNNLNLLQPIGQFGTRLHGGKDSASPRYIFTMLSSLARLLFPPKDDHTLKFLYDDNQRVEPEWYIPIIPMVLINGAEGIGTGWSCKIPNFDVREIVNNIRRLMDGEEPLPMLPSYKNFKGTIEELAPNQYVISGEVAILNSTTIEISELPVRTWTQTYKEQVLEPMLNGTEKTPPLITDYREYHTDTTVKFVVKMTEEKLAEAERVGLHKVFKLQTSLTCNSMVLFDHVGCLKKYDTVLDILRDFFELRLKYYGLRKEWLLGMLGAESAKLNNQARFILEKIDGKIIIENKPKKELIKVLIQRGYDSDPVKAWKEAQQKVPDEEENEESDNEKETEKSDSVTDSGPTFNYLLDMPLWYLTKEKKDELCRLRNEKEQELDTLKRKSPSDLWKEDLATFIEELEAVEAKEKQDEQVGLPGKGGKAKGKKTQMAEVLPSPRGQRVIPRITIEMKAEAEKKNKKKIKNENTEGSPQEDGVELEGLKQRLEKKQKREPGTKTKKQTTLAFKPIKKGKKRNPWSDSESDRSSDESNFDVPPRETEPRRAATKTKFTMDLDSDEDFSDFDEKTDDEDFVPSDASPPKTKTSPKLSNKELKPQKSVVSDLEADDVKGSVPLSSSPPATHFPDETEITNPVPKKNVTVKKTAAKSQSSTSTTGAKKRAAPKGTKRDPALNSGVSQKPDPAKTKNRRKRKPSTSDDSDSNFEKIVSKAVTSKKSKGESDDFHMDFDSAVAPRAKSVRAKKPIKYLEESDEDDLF

Structure (SMILES)	inhibition [1] [%]	inhibition [2] [%]	IC50 [3] [nM]	IC50 [4] [nM]	IC50 [5] [nM]	IC50 [6] [nM]	inhibition [7] [%]
Oc1ccc(-c2cc(-c3ccccc3Cl)nc3c2Cc2ccc(O)cc2-3)cc1	19.2	0	950	540	3220	3040	80.9
Oc1cccc(-c2cc(-c3ccccc3Cl)nc3c2Cc2cccc(O)c2-3)c1	10.9	6.3	120	240	5250	3820	89.6
Oc1cccc(-c2cc(-c3ccccc3Cl)c3c(n2)-c2cccc(O)c2C3)c1	11.4	28.1	2880	5630	7360	8280	67.5
Oc1cccc(-c2cc(-c3ccc(C(F)(F)F)cc3)nc3c2Cc2cccc(O)c2-3)c1	0	0	2140	2220	6660	11300	100
Oc1ccc2c(c1)-c1nc(-c3ccccc3O)cc(-c3cccc(Cl)c3)c1C2	4	1.9	7690	37100	20000	29800	67.2
Oc1ccccc1-c1cc(-c2ccc(Cl)cc2)nc2c1Cc1c(O)cccc1-2	7	14.5	1250	610	1960	2310	80.3
Oc1ccc(-c2cc(-c3ccc(Cl)cc3)nc3c2Cc2cc(O)ccc2-3)cc1	50.2	0	1840	1910	1020	770	100
Oc1ccccc1-c1cc(-c2cccc(Cl)c2)nc2c1Cc1c(O)cccc1-2	6.9	0	640	560	> 50000	7470	83.5
Oc1ccccc1-c1cc(-c2ccccc2Cl)nc2c1Cc1c(O)cccc1-2	0	0	920	830	680	770	82
Oc1ccccc1-c1cc(-c2ccc(F)cc2)nc2c1Cc1cccc(O)c1-2	0	0	740	1400	3080	2070	34.4
Oc1cccc2c1-c1nc(-c3ccccc3)cc(-c3ccccc3)c1C2	0	0	740	1400	3080	2070	57.5
Oc1ccc(-c2cc(-c3cccc(F)c3)nc3c2Cc2cccc(O)c2-3)cc1	3.9	1.1	750	5780	7200	> 50000	67
Oc1cccc(-c2cc(-c3ccc(C(F)(F)F)cc3)nc3c2Cc2cc(O)ccc2-3)c1	14.9	2.8	8900	1590	11400	6820	100
Oc1ccc(-c2cc(-c3ccc(F)cc3)nc3c2Cc2ccc(O)cc2-3)cc1	1.4	0.9	1140	2340	2250	2540	47.6
Oc1ccc2c(c1)Cc1c(-c3ccccc3O)cc(-c3cccc(C(F)(F)F)c3)nc1-2	4.1	0	700	1720	3100	3890	85.4
Oc1ccccc1-c1cc(-c2ccccc2C(F)(F)F)nc2c1Cc1cccc(O)c1-2	4	0	750	2000	1990	1640	84.8
